One experiment concerns the target T1, human full-length MKNK1 (Homo sapiens, UniProt Q9BUB5, T385D).
T1 construct: purchased Carna Biosciences 02-145; host or cells: insect cells (baculovirus expression system)
The experiment can be described thus: MKNK1 kinase high ATP assay (TR-FRET-based). The conditions noted are these: ATP final conc. 2 mM, 15 min preincubation, 30 min reaction at 22° C. It is filed as biochemical. How it is done:
MKNK1 Kinase High ATP Assay
MKNK1-inhibitory activity at high ATP of compounds of the present invention after their preincubation with MKNK1 was quantified employing the TR-FRET-based MKNK1 high ATP assay as described in the following paragraphs.
A recombinant fusion protein of Glutathione-S-Transferase (GST, N-terminally) and human full-length MKNK1 (amino acids 1-424 and T344D of accession number BAA 19885.1), expressed in insect cells using baculovirus expression system and purified via glutathione sepharose affinity chromatography, was purchased from Carna Biosciences (product no 02-145) and used as enzyme. As substrate for the kinase reaction the biotinylated peptide biotin-Ahx-IKKRKLTRRKSLKG (C-terminus in amide form) was used, which can be purchased e.g. from the company Biosyntan (Berlin-Buch, Germany).
(§1) For the assay 50 nL of a 100 fold concentrated solution of the test compound in DMSO was pipetted into a black low volume 384 well microtiter plate (Greiner Bio-One, Frickenhausen, Germany), 2 μL of a solution of MKNK1 in aqueous assay buffer [50 mM HEPES pH 7.5, 5 mM magnesium chloride, 1.0 mM dithiothreitol, 0.005% (v/v) Nonidet-P40 (Sigma)] was added and the mixture was incubated for 15 min at 22° C. to allow pre-binding of the test compounds to the enzyme before the start of the kinase reaction. Then the kinase reaction was started by the addition of 3 μL of a solution of adenosine-tri-phosphate (ATP, 3.3 mM=>final conc. in the 5 μL assay volume is 2 mM) and substrate (0.1 μM=>final conc. in the 5 μL assay volume is 0.06 μM) in assay buffer and the resulting mixture was incubated for a reaction time of 30 min at 22° C. The concentration of MKNK1 was adjusted depending of the activity of the enzyme lot and was chosen appropriate to have the assay in the linear range, typical concentrations were in the range of 0.003 μg/mL. The reaction was stopped by the addition of 5 μL of a solution of TR-FRET detection reagents (5 nM streptavidine-XL665 [Cisbio Bioassays, Codolet, France] and 1 nM anti-ribosomal protein S6 (pSer236)-antibody from Invitrogen [#44921G] and 1 nM LANCE EU-W1024 labeled ProteinG [Perkin-Elmer, product no. AD0071]) in an aqueous EDTA-solution (100 mM EDTA, 0.1% (w/v) bovine serum albumin in 50 mM HEPES pH 7.5).
(§2) The resulting mixture was incubated for 1 h at 22° C. to allow the formation of complex between the phosphorylated biotinylated peptide and the detection reagents. Subsequently the amount of phosphorylated substrate was evaluated by measurement of the resonance energy transfer from the Eu-chelate to the streptavidine-XL. Therefore, the fluorescence emissions at 620 nm and 665 nm after excitation at 350 nm were measured in a TR-FRET reader, e.g. a Rubystar (BMG Labtechnologies, Offenburg, Germany) or a Viewlux (Perkin-Elmer). The ratio of the emissions at 665 nm and at […] was taken as the measure for the amount of phosphorylated substrate. The data were normalised (enzyme reaction without inhibitor=0% inhibition, all other assay components but no enzyme=100% inhibition).

The target in another experiment is T2, human full-lengt MKNK1 (Homo sapiens, UniProt Q9BUB5, T385D).
T2 construct: purchased Carna Biosciences 02-145; host or cells: insect cells (baculovirus expression system)
The experiment can be described thus: MKNK1 kinase assay (MKNK1 TR-FRET assay). It is filed as biochemical. The conditions noted are these: ATP final conc. 10 μM, 15 min preincubation, 45 min reaction at 22° C.
Description: MKNK1-inhibitory activity of compounds of the present invention was quantified employing the MKNK1 TR-FRET assay as described in the following paragraphs.
A recombinant fusion protein of Glutathione-S-Transferase (GST, N-terminally) and human full-lengt MKNK1 (amino acids 1-424 and T344D of accession number BAA 19885.1), expressed in insect cells using baculovirus expression system and purified via glutathione sepharose affinity chromatography, was purchased from Carna Biosciences (product no 02-145) and used as enzyme. As substrate for the kinase reaction the biotinylated peptide biotin-Ahx-IKKRKLTRRKSLKG (C-terminus in amide form) was used which can be purchased e.g. form the company Biosyntan (Berlin-Buch, Germany).
as §1, with “16.7 μM=>final” for “3.3 mM=>final”, “10 μM)” for “2 mM)”, “45” for “30”, “0.05 μg/ml.” for “0.003 μg/mL.”
as §2, with “inhibition). Usually the test compounds were tested on the same microtiterplate in 11 different concentrations in the range of 20 μM to 0.1 nM (20 μM, 5.9 μM, 1.7 μM, 0.51 μM, 0.15 μM, 44 nM, 13 nM, 3.8 nM, 1.1 nM, 0.33 nM and 0.1 nM, the dilution series prepared separately before the assay on the level of the 100 fold concentrated solutions in DMSO by serial 1:3.4 dilutions) in duplicate values for each concentration and […] were calculated by a 4 parameter fit.” for “inhibition).”

Where a name gives a salt, the structure may show the parent alone.

T2 sequence (Q9BUB5 1-424 isoform Q9BUB5-2 T344D): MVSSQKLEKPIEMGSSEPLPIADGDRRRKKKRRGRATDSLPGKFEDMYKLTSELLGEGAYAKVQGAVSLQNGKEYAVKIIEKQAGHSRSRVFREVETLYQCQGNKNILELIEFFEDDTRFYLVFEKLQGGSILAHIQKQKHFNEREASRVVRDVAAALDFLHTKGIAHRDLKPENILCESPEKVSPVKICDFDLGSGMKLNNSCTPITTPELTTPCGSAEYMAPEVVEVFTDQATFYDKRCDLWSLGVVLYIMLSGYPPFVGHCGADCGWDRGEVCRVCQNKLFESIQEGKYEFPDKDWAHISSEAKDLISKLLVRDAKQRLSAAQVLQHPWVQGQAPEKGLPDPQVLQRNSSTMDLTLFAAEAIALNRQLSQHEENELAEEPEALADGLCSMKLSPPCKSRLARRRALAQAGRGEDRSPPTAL
T1 sequence (Q9BUB5 1-424 isoform Q9BUB5-2 T344D): as above

Regarding `N[C@H](COc1ccc2ncc(-c3cc4cnccc4o3)n2n1)c1ccccc1` [Example 1, (1S)-2-{[3-(Furo[3,2-c]pyridin-2-yl)imidazo[1,2-b]pyridazin-6-yl]oxy}-1-phenylethanamine], the figures for the IC50 at human full-length MKNK1 and against human full-lengt MKNK1 were 0.053 µM and 0.017 µM, respectively.
The matching figures for `COc1nccc2oc(-c3cnc4ccc(O[C@H]5C[C@H](N)C5)nn34)cc12` [Example 2, trans-3-{[3-(4-Methoxyfuro[3,2-c]pyridin-2-yl)imidazo[1,2-b]pyridazin-6-yl]-oxy}cyclobutanamine]: 0.005 µM and 0.003 µM.
The matching figures for `COc1nccc2oc(-c3cnc4ccc(OC[C@@H](C)N)nn34)cc12` [Example 3, (2R)-1-{[3-(4-Methoxyfuro[3,2-c]pyridin-2-yl)imidazo[1,2-b]pyridazin-6-yl]-oxy}propan-2-amine]: 0.027 µM and 0.011 µM.
The matching figures for `COc1nccc2oc(-c3cnc4ccc(OC[C@@H](N)c5ccccc5)nn34)cc12` [Example 4, (1S)-2-{[3-(4-Methoxyfuro[3,2-c]pyridin-2-yl)imidazo[1,2-b]pyridazin-6-yl]oxy}-1-phenylethanamine]: 0.091 µM and 0.02 µM.
For the molecule `COc1nccc2oc(-c3cnc4ccc(OC[C@H](C)N)nn34)cc12` [Example 5, (2S)-1-{[3-(4-Methoxyfuro[3,2-c]pyridin-2-yl)imidazo[1,2-b]pyridazin-6-yl]-oxy}propan-2-amine], the IC50 turned out to be 0.065 µM at human full-length MKNK1 and 0.021 µM against human full-lengt MKNK1.
For `COc1nccc2oc(-c3cnc4ccc(O[C@H](C)CN)nn34)cc12` [Example 6, (2R)-2-{[3-(4-Methoxyfuro[3,2-c]pyridin-2-yl)imidazo[1,2-b]pyridazin-6-yl]-oxy}propan-1-amine], in that order: 0.037 µM and 0.023 µM.
The matching figures for `N[C@@H](COc1ccc2ncc(-c3cc4cnccc4o3)n2n1)c1ccccc1` [Example 7, (1R)-2-{[3-(Furo[3,2-c]pyridin-2-yl)imidazo[1,2-b]pyridazin-6-yl]oxy}-1-phenylethanamine]: 0.091 µM and 0.025 µM.
For `C[C@H](CN)Oc1ccc2ncc(-c3cc4cnccc4o3)n2n1` [Example 8, (2R)-2-{[3-(Furo[3,2-c]pyridin-2-yl)imidazo[1,2-b]pyridazin-6-yl]oxy}propan-1-amine], in that order: 0.136 µM and 0.028 µM.
Regarding `COc1nccc2oc(-c3cnc4ccc(OC[C@H](N)c5ccccc5)nn34)cc12` [Example 9, (1R)-2-{[3-(4-Methoxyfuro[3,2-c]pyridin-2-yl)imidazo[1,2-b]pyridazin-6-yl]oxy}-1-phenylethanamine], the IC50 on human full-length MKNK1 stood at 0.094 µM; on human full-lengt MKNK1 it was 0.048 µM.
In the case of `COc1nccc2oc(-c3cnc4ccc(OC[C@@H](N)[C@@H](C)OCc5ccccc5)nn34)cc12` [Example 10, (2R,3R)-3-(Benzyloxy)-1-{[3-(4-methoxyfuro[3,2-c]pyridin-2-yl)imidazo[1,2-b]-pyridazin-6-yl]oxy}butan-2-amine], the figures for the IC50 against human full-length MKNK1 and on human full-lengt MKNK1 were 0.062 µM and 0.034 µM, respectively.
For `COc1nccc2oc(-c3cnc4ccc(OC[C@H](N)COCc5ccccc5)nn34)cc12` [Example 11, (2R)-1-(Benzyloxy)-3-{[3-(4-methoxyfuro[3,2-c]pyridin-2-yl)imidazo[1,2-b]-pyridazin-6-yl]oxy}propan-2-amine], in that order: 0.059 µM and 0.017 µM.
The matching figures for `C[C@H](N)COc1ccc2ncc(-c3cc4ccncc4o3)n2n1` [Example 12, (2S)-1-{[3-(Furo[2,3-c]pyridin-2-yl)imidazo[1,2-b]pyridazin-6-yl]oxy}propan-2-amine]: 0.065 µM and 0.026 µM.
The matching figures for `N[C@H]1C[C@H](Oc2ccc3ncc(-c4cc5ccncc5o4)n3n2)C1` [Example 13, trans-3-{[3-(Furo[2,3-c]pyridin-2-yl)imidazo[1,2-b]pyridazin-6-yl]oxy}-cyclobutanamine salt with formic acid]: 0.016 µM and 0.005 µM.
With `N[C@H]1C[C@H](Oc2ccc3ncc(-c4cc5cnccc5o4)n3n2)C1` [Example 14, trans-3-{[3-(Furo[3,2-c]pyridin-2-yl)imidazo[1,2-b]pyridazin-6-yl]oxy}cyclobutanamine salt with formic acid], the IC50 at human full-length MKNK1 was 0.034 µM; against human full-lengt MKNK1 it was 0.005 µM.
The matching figures for `COc1nccc2oc(-c3cnc4ccc(OC[C@H](N)CO)nn34)cc12` [Example 15, (2R)-2-Amino-3-{[3-(4-methoxyfuro[3,2-c]pyridin-2-yl)imidazo[1,2-b]pyridazin-6-yl]oxy}propan-1-C1]: 0.031 µM and 0.012 µM.
On to `C[C@H](N)COc1ccc2ncc(-c3cc4c(OC5CCC5)nccc4o3)n2n1` [Example 41, (2S)-1-({3-[4-(Cyclobutyloxy)furo[3,2-c]pyridin-2-yl]imidazo[1,2-b]pyridazin-6-yl}oxy)propan-2-amine], for which half-maximal inhibition against human full-length MKNK1 (IC50) required 0.019 µM. This counts as double-digit nanomolar.
As to `C[C@@H](N)COc1ccc2ncc(-c3cc4c(OC5CCC5)nccc4o3)n2n1` [Example 42, (2R)-1-({3-[4-(Cyclobutyloxy)furo[3,2-c]pyridin-2-yl]imidazo[1,2-b]pyridazin-6-yl}oxy)propan-2-amine], at human full-length MKNK1, half-maximal inhibition (IC50) required 0.026 µM.

The values above are taken from patent publication US9643974B2, “Amino-substituted imidazopyridazines” (Bayer Intellectual Property GmbH, priority 2011, dated 2017).
